# Data published in patent US5336485A, “Method for protecting animals against tacrine induced cytotoxic injury using sterol compounds” (priority 1993, dated 1994).
# Counter-ions that a name gives are not always drawn.
# Legend:
# [1] = tested on: gluconeogenesis or ATP production; conditions: cited from earlier work
# L1210 leukemia cells [2] = conditions: 100 mg/kg ip
# liver [3] = test: CCl4 induced hepatotoxicity in rats (serum AST/ALT); format: in vivo, rat; conditions: for Serum AST Levels: listed as Cholesteryl Succinate free acid
# Method in brief: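 Male Sprague-Dawley rats received test compounds i.p. at 100 mg/kg 20–24 h before oral CCl4 (2.9 g/kg or 1 g/kg). Serum AST and ALT were measured 48 h after CCl4 challenge.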
# [4] = tested on: L1210 murine leukemia cells; test: Inhibition of L1210 leukemia cell growth in vitro; format: cell-based, mouse
# Procedure: Similar in vitro experiments were conducted with cholesteryl succinate tris salt and alpha-TS tris salt.
# male Sprague-Dawley rats = test: CCl4 induced lethality in rats; format: in vivo, rat
# rat hepatocytes [5] = test: Intracellular K+ of rat hepatocytes exposed to EMS; format: cell-based; conditions: 50 mM EMS, 5 Hrs; concentrations as cell death (Table 15)
# Text: Medzhradsky, Biochem. Med. 13:164 (1975), has noted that the cell's ability to maintain its intracellular concentration of potassium (K^+) is an excellent indicator of the metabolic integrity of the cell. A concentration gradient exists for K^+ with greater concentrations found intracellularly. To maintain this gradient, the cell is dependent on the action of the Na^+ -K^+ ATPase pump and an adequate supply of ATP. As cellular ATP levels decline, the ATPase pump is unable to maintain the gradient resulting in the loss of intracellular K^+ by equilibration with the extracellular space. Because the maintenance of cellular metabolic processes is essential to the continual repair and survival of cells, organ systems, and organisms, the effect of alpha-TS on the metabolic integrity of rat liver cells during a toxic insult was investigated by measuring intracellular K^+ levels. […] At each time-point, rapid separation of viable from non-viable hepatocytes and medium was accomplished by the dibutyl phthalate centrifugation method. Cell viability was monitored hourly by measuring LDH leakage with a Cobas Analyzer and intracellular [K^+ ]with a flame photometer. […] Lipid peroxidation was determined by measuring TBA reactants in the medium. […] Alltech, Avondale, Pa.). […] Following the addition of 0.2 ml 4 M HC1, the neutralized KOH-MeOH extracted with 0.8 ml hexane. […] A standard curve for each tocopherol congener was run with every assay. […] Only viable cells were monitored in the laboratory procedures.
# rat hepatocytes [6] = test: EMS-induced cytotoxicity (LDH leakage/cell death) in rat hepatocyte suspensions; conditions: for Cell Death: 50 mM EMS, 5 Hrs, alpha-TS 25, methyl ester 50, cholesteryl succinate 100, monomethyl/dimethyl succinate 250 μM; for inhibition at 25 µM: Rattus norvegicus, Hepatocyte
# Procedure: To determine if alpha-TS is a cytoprotective agent under physiological conditions, liver cells were incubated with Waymouth's medium containing approximately 1 mM extracellular Ca^2+ in the presence and absence of alpha-TS.
# (§1) At each time-point, rapid separation of viable from non-viable hepatocytes and medium was accomplished by the dibutyl phthalate centrifugation method. Cell viability was monitored hourly by measuring LDH leakage with a Cobas Analyzer and intracellular [K^+ ]with a flame photometer. LDH was routinely measured in the medium while intracellular K^+ was measured in the 10% perchloric acid lysate of viable cells. Lipid peroxidation was determined by measuring TBA reactants in the medium. […] The samples were diluted with 0.3 ml 1% ascorbate in 0.1 M SDS, 0.4 ml ethanol, sonicated and extracted once with 0.8 ml hexane. Next, the hexane extract was evaporated to dryness with N2, the residue dissolved in 2.5% ascorbate in methanol (1 ml) and analyzed (100 μl) by high-performance liquid chromatograph (HPLC). […] The mobile phase, 95% MeOH was run isocratically and the HPLC retention times for delta and alpha-tocopherol were approximately eleven and sixteen minutes, respectively. […] Following the addition of 0.2 ml 4 M HC1, the neutralized KOH-MeOH extracted with 0.8 ml hexane. […] A standard curve for each tocopherol congener was run with every assay. […] Only viable cells were monitored in the laboratory procedures.
# To determine the relative cytoprotective potency of various tocopherol derivatives, the effect of varying doses of a tocopherol analog on the protection against EMS-induced toxicity was examined in vitro on rat hepatocyte suspensions. Specifically, the following ionizable tocopherol congeners were tested: alpha-TS, alpha tocopheryl glutarate (alpha-TG), and alpha tocopheryl phosphate (alpha-TP). […] 0.1 nmoles is the lower detection limit.
# In vitro experiments were conducted with a variety of different tocopherol and succinate analogs to determine which were protective against EMS induced toxicity. After five hours of incubation with 50 mM EMS and 25μM of a tocopherol or succinate analog, cytoprotection was determined by comparing the percentage of LDH leakage from control hepatocytes (vehicle only, assumed 100% protection) with the EMS only treated cells (assumed 0% protection).
# An in vitro experiment with rat hepatocyte suspensions was performed to determine the effect of esterase inhibitors on alpha-TS.
# (§2) Rat hepatocyte suspensions were subjected to 50 mM EMS and the percentage of cell death, the percentage of intracellular K^+ (a metabolic parameter as discussed above), the depletion of ATP and the effect on lipid peroxidation were monitored.
# rat hepatocytes [7] = test: Cellular alpha-tocopherol and tocopherol ester content of rat hepatocytes; conditions: 25 μM, Table 2
# Procedure: as §1
# The hepatocytes were subsequently exposed to 50mM EMS for three hours.
# rat hepatocytes [8] = test: EMS-induced lipid peroxidation in rat hepatocyte suspensions; format: cell-based; conditions: 50 mM EMS
# Procedure: as §1, §2
# variety of cell types = conditions: cited from earlier work
# [9] = Tissue distribution of alpha-tocopherol and alpha-tocopherol ester in rats; format: in vivo, rat; conditions: 100 mg/kg ip, 24 h
# Procedure: 100 mg/kg body weight of a tocopherol analog was administered to Sprague-Dawley rats using a peanut oil:ethanol vehicle (3:2). Twenty four hours later the rats were sacrificed and the accumulation of the tocopherol analog in the liver was determined.
# A similar in vivo experiment to that discussed in conjunction with Table 5 was performed to determine if other tissues accumulate alpha-TS. Male Sprague-Dawley rats were given a 100 mg/kg dose of alpha-TS using a variety of chemical forms and vehicles. A variety of techniques were used to administer the alpha-TS. Twenty four hours later the rats were sacrificed and the tissues were tested for alpha-TS accumulation.
# liver [10] = test: THA-induced hepatotoxicity in rats (serum AST); format: in vivo, rat; conditions: 100 mg/kg ip
# Procedure: FIGS. 10 and 11 show the results of in vivo experiments where male Sprague-Dawley rats were given an oral dose of 15 or 30 mg THA/kg body weight, respectively. […] The serum AST levels were determined with respect to time after the THA challenge.
# CDF1 mice = test: Doxorubicin lethality in CDF1 mice (normal tissue); format: in vivo, mouse; conditions: 100 mg/kg ip 20 h prior, DOX 10, 15, 20, 25 mg/kg
# Procedure: (§3) The experiments were conducted in accordance with NCI Protocol 1,100. FIGS. 8a-d show the experimental results obtained when male CDF1 mice (n=6) received either vehicle only or 100mg/kg body weight i.p. dose of either alpha-TS or cholesteryl succinate 20 hours prior to DOX administration. FIGS. 8a-d respectively show the results obtained when the mice received 10, 15, 20, and 25 mg DOX/kg body weight. […] FIGS. 9a-d show the experimental results obtained when male CDF1 mice ([…]) were injected (i.p.) with 10^6 murine L1210 leukemia cells followed immediately by an injection of alpha-TS tris salt (100 mg/kg, i.p.) or saline injection (vehicle), and twenty hours later (Day=0) each mouse in three of the groups was i.p. injected with 15, 20, or 25 mg DOX/kg body weight ([…]). Survival was monitored for twenty days.
# L1210 leukemia cells [11] = test: Doxorubicin in L1210 leukemia bearing CDF1 mice; format: in vivo, mouse; conditions: DOX 10 mg/kg
# Procedure: as §3
# liver [12] = test: Acetaminophen-induced hepatotoxicity in rats (AST/ALT); format: in vivo, rat
# Procedure: In vivo experiments were performed to determine if alpha-TS administration protects the liver from the hepatotoxic effects of acetaminophen. Acetaminophen is a commonly used analgesic that is metabolized to a reactive intermediate. […] The other group of male Sprague-Dawley rats received only the acetaminophen challenge. Forty eight hours after the challenge the rats were sacrificed and the levels of aspartate aminotransferase (AST) and alanine aminotransferase (ALT) were measured.
# FIGS. 10 and 11 show the results of in vivo experiments where male Sprague-Dawley rats were given an oral dose of 15 or 30 mg THA/kg body weight, respectively. In the experiments, one group of rats was provided with an i.p. dose of 100 mg cholesteryl succinate tris salt/kg body weight 20 hours prior to the THA challenge, another group of rats only received the THA challenge, and the last group of rats acted as a control and were not challenged. The serum AST levels were determined with respect to time after the THA challenge.
# [13] = 100 mg/kg ip 20 h prior, 48 h after 1 g/kg CCl4 (Table 20)
# [14] = 100 mg/kg ip 20 h prior, 48 h after 1 g/kg CCl4 (Table 27)
# [15] = 100 mg/kg, single dose 24 h prior, CCl4 […]
# [16] = rat plasma, 100 mg/kg ip 24 h prior, 48 h after […] CCl4
# [17] = 100 mg/kg ip, 48 h after 1 g/kg CCl4 (Table 33)
# [18] = 100 mg/kg ip, no CCl4 (Table 20)
# [19] = 100 mg/kg ip, no CCl4 (Table 33)
# [20] = 100 mg/kg ip 20 hrs prior, 48 h after 2 g/kg AP (Table 23)
compound,measurement,setting,value
"COC(=O)CCC(=O)O [methyl ester succinate, methyl ester of succinate]",concentration required to stimulate gluconeogenesis or ATP production,[1],Millimolar concentrations
"Cc1c(C)c2c(c(C)c1OC(=O)CCC(=O)O)CC[C@@](C)(CCC[C@H](C)CCC[C@H](C)CCCC(C)C)O2 [alpha-TS tris salt, Alpha tocopheryl succinate tris salt]",Survival Time,L1210 leukemia cells [2],7.6 ± 0.6 days
same,ALT,liver [3]; [13],0.371 ± 0.246 10^3 units/L
same,AST,liver [3]; [13],1.86 ± 1.11 10^3 units/L
same,ALT,liver [3]; [14],0.52 ± 0.16 10^3 units/L
same,AST,liver [3]; [14],0.79 ± 0.26 10^3 units/L
same,inhibition in vivo at 100 mg/kg,"liver [3]; Rattus norvegicus, 100 mg/kg ip 20 h prior, 48 h after 1 g/kg CCl4, read-out: % Hepatoprotection",80%
same,growth rate of L1210 cells (FIG. 7),[4],significantly suppress the growth rate of L1210 cells
"COC(=O)CCC(=O)Oc1c(C)c(C)c2c(c1C)CCC(C)(CCCC(C)CCCC(C)CCCC(C)C)O2 (stereo not drawn) [methyl ester of alpha-TS, Alpha-Tocopherol Succinate Methyl Ester]",Days Survived After CCl4 Treatment,male Sprague-Dawley rats; [15],> 7 days
same,% Initial Intracellular [K+],rat hepatocytes [5],67 ± 4 % Initial
same,Cell Death,rat hepatocytes [6],30 ± 1%
same,inhibition at 25 µM,"rat hepatocytes [6]; 5 h, read-out: Percent Cytoprotection, 25 μM, 50 mM EMS, 5 h",22 ± 15%
"CC(=O)Oc1c(C)c(C)c2c(c1C)CC[C@@](C)(CCC[C@H](C)CCC[C@H](C)CCCC(C)C)O2 [alpha-TA, d-alpha-tocopherol acetate, reference compound]",Cellular Tocopherol ester,rat hepatocytes [7],1.7 nmoles/10^6 cells
same,Cellular alpha-T,rat hepatocytes [7],0.3 nmoles/10^6 cells
same,inhibition at 25 µM,"rat hepatocytes [8]; Rattus norvegicus, Hepatocyte, 25 μM",14%
same,ALT,liver [3]; [16],"6,108 ± 417 Units/L"
same,AST,liver [3]; [16],"20,233 ± 3525 Units/L"
same,protection against carcinogenic effects of radiation and cancer causing chemicals,variety of cell types,ineffective
same,Protection from CCl4,male Sprague-Dawley rats; 100 mg/kg ip (Table 5),No
same,Days Survived After CCl4 Treatment,"male Sprague-Dawley rats; 100 mg/kg ip, 24 h prior, CCl4 2.2 g/kg",> 7 days
same,Days Survived After CCl4 Treatment,"male Sprague-Dawley rats; 100 mg/kg ip, 24 h prior, CCl4 3.8 g/kg",2 days
same,Days Survived After CCl4 Treatment,"male Sprague-Dawley rats; 100 mg/kg ip, 24 h prior, CCl4 5.0 g/kg",2 days
same,Days Survived After CCl4 Treatment,"male Sprague-Dawley rats; 100 mg/kg ip, 24 h prior, CCl4 […]",3 days
same,Liver Concentration Ester,[9],92 ± 6 nmol/g
same,inhibition at 25 µM,"rat hepatocytes [6]; read-out: % Protection, 25 μM, 50 mM EMS",12%
CC(C)CCC[C@@H](C)[C@H]1CC[C@H]2[C@@H]3CC=C4C[C@@H](OC(=O)CCC(=O)O)CC[C@]4(C)[C@H]3CC[C@]12C [Cholesteryl Succinate],Lipid Peroxidation,"rat hepatocytes [8]; 5 Hrs, concentrations as cell death (Table 15)",11.3 ± 4.2 nmolMDA/10^6 cells
same,Serum AST Levels,"liver [3]; 100 mg/kg ip 20 h prior, 24 hrs after 2 g/kg CCl4 (Table 26)",1.84 ± 1.13 10^3 units/L
same,Serum AST Levels,"liver [3]; 100 mg/kg ip 20 h prior, 48 hrs after 2 g/kg CCl4 (Table 26)",1.90 ± 2.64 10^3 units/L
same,protection against THA hepatotoxicity (FIG. 10),liver [10]; THA 15 mg/kg,protects against the hepatotoxicity resulting from THA
same,protection against THA hepatotoxicity (FIG. 11),liver [10]; THA 30 mg/kg,protects against the hepatotoxicity resulting from THA
same,Days Survived After CCl4 Treatment,male Sprague-Dawley rats; [15],> 7 days
same,"survival after DOX, normal mice (FIGS. 8a-d)",CDF1 mice,survived significantly longer
same,Cell Death,rat hepatocytes [6],48 ± 4%
same,inhibition at 25 µM,"rat hepatocytes [6]; 5 h, read-out: Percent Cytoprotection",30 ± 22%
"COc1cccc2c1C(=O)c1c(O)c3c(c(O)c1C2=O)C[C@@](O)(C(=O)CO)C[C@@H]3O[C@H]1C[C@H](N)[C@H](O)[C@H](C)O1 [DOX, doxorubicin, reference compound]",survival of tumor bearing mice given DOX,L1210 leukemia cells [11],dramatically increased
"O=C(O)CCC(=O)O [Tris Succinate, reference compound]",ALT,liver [3]; [13],3.617 ± 0.858 10^3 units/L
same,AST,liver [3]; [13],11.22 ± 3.15 10^3 units/L
same,ALT,liver [3]; [17],2.135 ± .881 10^3 units/L
same,AST,liver [3]; [17],8.32 ± 2.65 10^3 units/L
same,ALT,liver [3]; [18],0.048 ± 0.005 10^3 units/L
same,AST,liver [3]; [18],0.11 ± 0.02 10^3 units/L
same,ALT,liver [3]; [19],0.058 ± .001 10^3 units/L
same,AST,liver [3]; [19],0.15 ± 5.02 10^3 units/L
same,growth rate of L1210 cells (FIG. 7),[4],no effect on the growth rate
same,Serum ALT Level,liver [12]; [20],623 ± 339 Units/L
same,Serum AST Level,liver [12]; [20],2286 ± 1190 Units/L
same,Serum ALT Level,"liver [12]; 100 mg/kg ip, no AP (Table 23)",50 ± 7 Units/L
same,Serum AST Level,"liver [12]; 100 mg/kg ip, no AP (Table 23)",93 ± 34 Units/L
